Source: publication PMC12621191, “Increasing the Chemical Space of L-SIGN Specific Glycomimetics” (Journal of Medicinal Chemistry, 2025)

Assays:
DC-SIGN = molecular target: T1, DC-SIGN (Homo sapiens, UniProt Q9NNX6); experiment: SPR binding inhibition (competition) assay on immobilized SARS-CoV-2 Spike surface, DC-SIGN; settings: Spike functionalized chip, DC-SIGN 20 μM coinjected with ligand, pH 8, duplicates
T1 construct: DC-SIGN 3G-ECD (amino acids 66 to 404); made in house
T1 sequence (Q9NNX6 66-404): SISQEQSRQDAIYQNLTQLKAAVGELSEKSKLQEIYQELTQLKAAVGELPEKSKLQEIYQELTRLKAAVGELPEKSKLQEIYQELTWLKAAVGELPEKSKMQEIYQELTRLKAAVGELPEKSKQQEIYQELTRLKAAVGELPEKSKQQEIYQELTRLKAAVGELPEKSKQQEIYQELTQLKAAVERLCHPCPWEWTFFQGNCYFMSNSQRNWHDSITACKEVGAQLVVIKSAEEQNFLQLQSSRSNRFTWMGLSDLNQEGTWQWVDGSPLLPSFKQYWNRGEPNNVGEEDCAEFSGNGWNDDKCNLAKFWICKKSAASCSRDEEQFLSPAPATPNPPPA

L-SIGN = molecular target: T2, L-SIGN (Homo sapiens, UniProt Q9H2X3); experiment: SPR binding inhibition (competition) assay on immobilized SARS-CoV-2 Spike surface, L-SIGN; settings: for Selectivity = (IC50 [DC-SIGN]/IC50 [L-SIGN]): L-SIGN vs DC-SIGN, SPR inhibition on Spike surface; for IC50 / L-SIGN IC50: SPR, Spike functionalized chip, L-SIGN 20 μM coinjected with ligand, pH 8, duplicates
T2 construct: L-SIGN 3G-ECD (amino acids 78 to 399); made in house
T2 sequence (Q9H2X3 78-399): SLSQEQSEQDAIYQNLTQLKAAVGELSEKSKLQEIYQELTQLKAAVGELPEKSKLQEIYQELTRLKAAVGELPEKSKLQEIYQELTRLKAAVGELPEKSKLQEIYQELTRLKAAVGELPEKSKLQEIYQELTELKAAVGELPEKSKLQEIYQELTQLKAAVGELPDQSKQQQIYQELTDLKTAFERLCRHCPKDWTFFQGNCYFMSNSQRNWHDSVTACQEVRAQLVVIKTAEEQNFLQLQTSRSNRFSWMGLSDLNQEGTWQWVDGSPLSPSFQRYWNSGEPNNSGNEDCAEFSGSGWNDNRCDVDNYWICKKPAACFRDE

N=C(N)NCc1cn([C@@H]2[C@@H](OCCCl)O[C@H](CO)[C@@H](O)[C@@H]2O)nn1 [Man84, reference compound]
IC50 (DC-SIGN): 1160 ± 25 µM
Selectivity = (IC50 [DC-SIGN]/IC50 [L-SIGN]) (L-SIGN): 61
IC50 (L-SIGN): 19 ± 0.02 µM

OC[C@H]1O[C@H](OCCCl)[C@@H](n2cc(CNc3ncccn3)nn2)[C@@H](O)[C@@H]1O [compound 2]
IC50 (DC-SIGN): 798 ± 16 µM
IC50 (L-SIGN): 602 ± 0.5 µM
L-SIGN IC50 (L-SIGN): Low affinity

COc1nc(NCc2cn([C@@H]3[C@@H](OCCCl)O[C@H](CO)[C@@H](O)[C@@H]3O)nn2)nc(OC)n1 [compound 3, 2-Chloroethyl 2-Deoxy-2-(4-(((4,6-dimethoxy-1,3,5-triazin-2-yl)amino)methyl)-1,2,3-triazol-1-yl)-α-D-mannopyranoside]
IC50 (DC-SIGN): 555 ± 14 µM
IC50 (L-SIGN): 453 ± 0.4 µM
L-SIGN IC50 (L-SIGN): Low affinity

OC[C@H]1O[C@H](OCCCl)[C@@H](n2cc(CNC3=NCCN3)nn2)[C@@H](O)[C@@H]1O [compound 4]
IC50 (DC-SIGN): 1130 ± 26 µM
Selectivity = (IC50 [DC-SIGN]/IC50 [L-SIGN]) (L-SIGN): 76
IC50 (L-SIGN): 15 ± 0.01 µM

OC[C@H]1O[C@H](OCCCl)[C@@H](n2cc(CNC3=NCCCN3)nn2)[C@@H](O)[C@@H]1O [compound 5, 2-Chloroethyl 2-Deoxy-2-(4-(((1,4,5,6-tetrahydropyrimidin-2-yl)amino)methyl)-1,2,3-triazol-1-yl)-α-D-mannopyranoside]
IC50 (DC-SIGN): 1130 ± 55 µM
Selectivity = (IC50 [DC-SIGN]/IC50 [L-SIGN]) (L-SIGN): 94
IC50 (L-SIGN): 12 ± 0.01 µM

O=c1ccnc(NCc2cn([C@@H]3[C@@H](OCCCl)O[C@H](CO)[C@@H](O)[C@@H]3O)nn2)[nH]1 [compound 6, 2-Chloroethyl 2-Deoxy-2-(4-(((pyrimidin-4(3H)-onyl)amino)methyl)-1,2,3-triazol-1-yl)-α-D-manno Pyranoside]
IC50 (DC-SIGN): 750 ± 29 µM
Selectivity = (IC50 [DC-SIGN]/IC50 [L-SIGN]) (L-SIGN): 25
IC50 (L-SIGN): 30 ± 0.2 µM

O=c1nccc(NCc2cn([C@@H]3[C@@H](OCCCl)O[C@H](CO)[C@@H](O)[C@@H]3O)nn2)[nH]1 [compound 7, 2-Chloroethyl 2-Deoxy-2-(4-(((pyrimidin-2(1H)-onyl)amino)methyl)-1,2,3-triazol-1-yl)-α-D-manno Pyranoside]
IC50 (DC-SIGN): 692 ± 8 µM
Selectivity = (IC50 [DC-SIGN]/IC50 [L-SIGN]) (L-SIGN): 5
IC50 (L-SIGN): 130 ± 1 µM

OC[C@H]1O[C@H](OCCCl)[C@@H](n2cc(CNc3ccccn3)nn2)[C@@H](O)[C@@H]1O [compound 8, 2-Chloroethyl 2-Deoxy-2-((4-((pyridin-2-ylamino)methyl))-1,2,3-triazol-1-yl)-α-D-mannopyranoside]
IC50 (DC-SIGN): 822 ± 16 µM
Selectivity = (IC50 [DC-SIGN]/IC50 [L-SIGN]) (L-SIGN): 8
IC50 (L-SIGN): 101 ± 0.2 µM

OC[C@H]1O[C@H](OCCCl)[C@@H](n2cc(CNc3ncc[nH]3)nn2)[C@@H](O)[C@@H]1O [compound 9, 2-Chloroethyl 2-Deoxy-2-(4-(((1H-imidazol-2-yl)amino)methyl)-1,2,3-triazol-1-yl)-α-D-mannopyranoside]
IC50 (DC-SIGN): 895 ± 8 µM
Selectivity = (IC50 [DC-SIGN]/IC50 [L-SIGN]) (L-SIGN): 50
IC50 (L-SIGN): 18 ± 0.1 µM

OC[C@H]1O[C@H](OCCCl)[C@@H](n2cc(CNc3nc4ccccc4[nH]3)nn2)[C@@H](O)[C@@H]1O [compound 10, 2-Chloroethyl 2-Deoxy-2-(4-(((1H-benzo[d]imidazol-2-yl)amino)methyl)-1,2,3-triazol-1-yl)-α-D-mannopyranoside]
IC50 (DC-SIGN): 779 ± 24 µM
Selectivity = (IC50 [DC-SIGN]/IC50 [L-SIGN]) (L-SIGN): 16
IC50 (L-SIGN): 48 ± 0.4 µM

COc1ccc2[nH]c(NCc3cn([C@@H]4[C@@H](OCCCl)O[C@H](CO)[C@@H](O)[C@@H]4O)nn3)nc2c1 [compound 11, 2-Chloroethyl 2-Deoxy-2-(4-(((5-methoxy-1H-benzo[d]imidazol-2-yl)amino)methyl)-1,2,3-triazol-1-yl)-α-D-mannopyranoside]
IC50 (DC-SIGN): 602 ± 12 µM
Selectivity = (IC50 [DC-SIGN]/IC50 [L-SIGN]) (L-SIGN): 12
IC50 (L-SIGN): 51.6 ± 0.7 µM

NCc1cn([C@@H]2[C@@H](OCCCl)O[C@H](CO)[C@@H](O)[C@@H]2O)nn1 [compound 51, reference compound]
IC50 (DC-SIGN): ~300 µM
Selectivity = (IC50 [DC-SIGN]/IC50 [L-SIGN]) (L-SIGN; listed as 51 (Man79)): totally unselective
IC50 (L-SIGN): ~300 µM
